≈ marks a conversion by molar mass, not a printed value. Calls of active or inactive are those of the source. No cut-off for these calls is given here.
Tests used:
[1] = system: Fusarium proliferatum; test: Antifungal activity against Fusarium proliferatum ATCC 10052 at 8 ug/ml by broth dilution method; type: functional, organism-based
[2] = system: Cryptococcus neoformans; test: Antifungal activity against Cryptococcus neoformans ATCC 34664 at 8 ug/ml by broth dilution method; type: functional, organism-based
[3] = system: Aspergillus niger; test: Antifungal activity against Aspergillus niger ATCC 16404 at 8 ug/ml by broth dilution method; type: functional, organism-based
[4] = system: Aspergillus fumigatus; test: Antifungal activity against Aspergillus fumigatus ATCC 46645 at 8 ug/ml by broth dilution method; type: functional, organism-based
[5] = system: Candida tropicalis; test: Antifungal activity against Candida tropicalis ATCC 750 at 8 ug/ml by broth dilution method; type: functional, organism-based
[6] = system: Candida albicans; test: Antifungal activity against Candida albicans ATCC 24433 by broth dilution method; type: functional
[7] = system: Pichia kudriavzevii; test: Antifungal activity against Candida krusei ATCC 6258 at 8 ug/ml by broth dilution method; type: functional, organism-based
[8] = system: Nakaseomyces glabratus; test: Antifungal activity against Candida glabrata ATCC 90030 by broth dilution method; type: functional
[9] = system: Nakaseomyces glabratus; test: Antifungal activity against Candida glabrata ATCC 90030 at 2 ug/ml by broth dilution method; type: functional, organism-based
[10] = system: Fusarium proliferatum; test: Antifungal activity against Fusarium proliferatum ATCC 10052 at 2 ug/ml by broth dilution method; type: functional, organism-based
[11] = system: Aspergillus niger; test: Antifungal activity against Aspergillus niger ATCC 16404 at 2 ug/ml by broth dilution method; type: functional, organism-based
[12] = system: Candida tropicalis; test: Antifungal activity against Candida tropicalis ATCC 750 at 2 ug/ml by broth dilution method; type: functional, organism-based
[13] = system: Candida albicans; test: Antifungal activity against Candida albicans ATCC 24433 at 2 ug/ml by broth dilution method; type: functional, organism-based
[14] = system: Aspergillus fumigatus; test: Antifungal activity against Aspergillus fumigatus ATCC 46645 at 2 ug/ml by broth dilution method; type: functional, organism-based
[15] = system: Cryptococcus neoformans; test: Antifungal activity against Cryptococcus neoformans ATCC 34664 at 2 ug/ml by broth dilution method; type: functional, organism-based
[16] = system: Pichia kudriavzevii; test: Antifungal activity against Candida krusei ATCC 6258 at 2 ug/ml by broth dilution method; type: functional, organism-based
[17] = system: Aspergillus niger; test: Antifungal activity against Aspergillus niger ATCC 16404 at 16 ug/ml by broth dilution method; type: functional, organism-based
[18] = system: Pichia kudriavzevii; test: Antifungal activity against Candida krusei ATCC 6258 at 16 ug/ml by broth dilution method; type: functional, organism-based
[19] = system: Aspergillus fumigatus; test: Antifungal activity against Aspergillus fumigatus ATCC 46645 at 16 ug/ml by broth dilution method; type: functional, organism-based
[20] = system: Candida tropicalis; test: Antifungal activity against Candida tropicalis ATCC 750 at 16 ug/ml by broth dilution method; type: functional, organism-based
[21] = system: Nakaseomyces glabratus; test: Antifungal activity against Candida glabrata ATCC 90030 at 16 ug/ml by broth dilution method; type: functional, organism-based
[22] = system: Candida albicans; test: Antifungal activity against Candida albicans ATCC 24433 at 16 ug/ml by broth dilution method; type: functional, organism-based
[23] = system: Cryptococcus neoformans; test: Antifungal activity against Cryptococcus neoformans ATCC 34664 at 16 ug/ml by broth dilution method; type: functional, organism-based
[24] = system: Fusarium proliferatum; test: Antifungal activity against Fusarium proliferatum ATCC 10052 at 16 ug/ml by broth dilution method; type: functional, organism-based
[25] = system: Pichia kudriavzevii; test: Antifungal activity against Candida krusei ATCC 6258 by broth dilution method; type: functional
[26] = system: Cryptococcus neoformans; test: Antifungal activity against Cryptococcus neoformans ATCC 34664 by broth dilution method; type: functional
[27] = system: Fusarium proliferatum; test: Antifungal activity against Fusarium proliferatum ATCC 10052 by broth dilution method; type: functional
[28] = system: Aspergillus fumigatus; test: Antifungal activity against Aspergillus fumigatus ATCC 46645 by broth dilution method; type: functional
[29] = system: Candida tropicalis; test: Antifungal activity against Candida tropicalis ATCC 750 by broth dilution method; type: functional
[30] = system: Aspergillus niger; test: Antifungal activity against Aspergillus niger ATCC 16404 by broth dilution method; type: functional
[31] = system: Aspergillus niger; test: Antifungal activity against Aspergillus niger ATCC 16404 at 32 ug/ml by broth dilution method; type: functional, organism-based
[32] = system: Aspergillus fumigatus; test: Antifungal activity against Aspergillus fumigatus ATCC 46645 at 32 ug/ml by broth dilution method; type: functional, organism-based
[33] = system: Fusarium proliferatum; test: Antifungal activity against Fusarium proliferatum ATCC 10052 at 32 ug/ml by broth dilution method; type: functional, organism-based
[34] = system: Cryptococcus neoformans; test: Antifungal activity against Cryptococcus neoformans ATCC 34664 at 32 ug/ml by broth dilution method; type: functional, organism-based
[35] = system: Pichia kudriavzevii; test: Antifungal activity against Candida krusei ATCC 6258 at 32 ug/ml by broth dilution method; type: functional, organism-based
[36] = system: Nakaseomyces glabratus; test: Antifungal activity against Candida glabrata ATCC 90030 at 32 ug/ml by broth dilution method; type: functional, organism-based
[37] = system: Candida tropicalis; test: Antifungal activity against Candida tropicalis ATCC 750 at 32 ug/ml by broth dilution method; type: functional, organism-based
[38] = system: Candida albicans; test: Antifungal activity against Candida albicans ATCC 24433 at 32 ug/ml by broth dilution method; type: functional, organism-based
[39] = system: Aspergillus niger; test: Antifungal activity against Aspergillus niger ATCC 16404 at 128 ug/ml by broth dilution method; type: functional, organism-based
[40] = system: Nakaseomyces glabratus; test: Antifungal activity against Candida glabrata ATCC 90030 at 128 ug/ml by broth dilution method; type: functional, organism-based
[41] = system: Pichia kudriavzevii; test: Antifungal activity against Candida krusei ATCC 6258 at 128 ug/ml by broth dilution method; type: functional, organism-based
[42] = system: Candida tropicalis; test: Antifungal activity against Candida tropicalis ATCC 750 at 128 ug/ml by broth dilution method; type: functional, organism-based
[43] = system: Cryptococcus neoformans; test: Antifungal activity against Cryptococcus neoformans ATCC 34664 at 128 ug/ml by broth dilution method; type: functional, organism-based
[44] = system: Candida albicans; test: Antifungal activity against Candida albicans ATCC 24433 at 128 ug/ml by broth dilution method; type: functional, organism-based
[45] = system: Fusarium proliferatum; test: Antifungal activity against Fusarium proliferatum ATCC 10052 at 128 ug/ml by broth dilution method; type: functional, organism-based
[46] = system: Aspergillus fumigatus; test: Antifungal activity against Aspergillus fumigatus ATCC 46645 at 128 ug/ml by broth dilution method; type: functional, organism-based

COc1cc(C2=C(c3ccc(F)cc3F)COC2=O)ccc1OCC(O)(Cn1cncn1)c1ccc(F)cc1F (racemic) was tested, and the Activity [1] was “inactive”, the Activity [2] was “inactive” and the Activity [3] was “inactive”. The Activity [4] was “inactive”, the Activity [5] was “inactive” and the MIC50 [6] was 1 µg/mL (≈ 1.8 µM). The Activity [7] was “inactive” and the MIC50 [8] was 1 µg/mL (≈ 1.8 µM).
With COc1ccc(C2=C(c3ccc(Br)cc3)/C(=C/c3ccc(OCC(O)(Cn4cncn4)c4ccc(F)cc4F)cc3)OC2=O)cc1 (racemic) the Activity [9] was “inactive”, the Activity [10] was “inactive” and the Activity [11] was “inactive”. For the same compound, the Activity [12] was “inactive”, the Activity [13] was “inactive” and the Activity [14] was “inactive”. For the same compound, the Activity [15] was “inactive” and the Activity [16] was “inactive”.
In the case of COc1cc(/C=C2\SC(=S)NC2=O)cc(OC)c1OCC(O)(Cn1cncn1)c1ccc(F)cc1F (racemic), the Activity [17] is reported as “inactive”, the Activity [18] is reported as “inactive” and the Activity [19] is reported as “inactive”. The Activity [20] was “inactive”, the Activity [21] was “inactive” and the Activity [22] was “inactive”. For the same compound, the Activity [23] was “inactive” and the Activity [24] was “inactive”.
For COc1cc(/C=C2\SC(=S)NC2=O)ccc1OCC(O)(Cn1cncn1)c1ccc(F)cc1F (racemic), the Activity [17] was “inactive”, the Activity [18] was “inactive” and the Activity [19] was “inactive”. The Activity [20] was “inactive”, the MIC50 [6] was 1 µg/mL (≈ 1.98 µM) and the Activity [23] was “inactive”. The MIC50 [8] was 8 µg/mL (≈ 15.9 µM) and the Activity [24] was “inactive”.
Compound C[C@@H]1[C@H](O)[C@@H](C)/C=C/C=C/C=C/C=C/C=C/C=C/C=C/[C@H](O[C@@H]2O[C@H](C)[C@@H](O)[C@H](N)[C@@H]2O)C[C@@H]2O[C@](O)(C[C@@H](O)C[C@@H](O)[C@H](O)CC[C@@H](O)C[C@@H](O)CC(=O)O[C@H]1C)C[C@H](O)[C@H]2C(=O)O [AMPHOTERICIN B] has an MIC50 [25] of 0.5 µg/mL (≈ 0.541 µM), an MIC50 [26] of 0.5 µg/mL (≈ 0.541 µM) and an MIC50 [27] of 2 µg/mL (≈ 2.16 µM). It also gave an MIC50 [28] of 0.5 µg/mL (≈ 0.541 µM), an MIC50 [29] of 0.5 µg/mL (≈ 0.541 µM) and an MIC50 [6] of 0.25 µg/mL (≈ 0.271 µM). The MIC50 [30] was 0.25 µg/mL (≈ 0.271 µM) and the MIC50 [8] was 0.25 µg/mL (≈ 0.271 µM).
For COc1cc(/C=C2\N=C(c3ccccc3)OC2=O)cc(OC)c1OCC(O)(Cn1cncn1)c1ccc(F)cc1F (racemic), the Activity [10] was “inactive”, the Activity [11] was “inactive” and the Activity [12] was “inactive”. For the same compound, the Activity [13] was “inactive”, the Activity [14] was “inactive” and the Activity [15] was “inactive”. The Activity [16] was “inactive”.
O=C1NC(=S)S/C1=C\c1ccc(OCC(O)(Cn2cncn2)c2ccc(F)cc2F)cc1 (racemic) was tested, and the Activity [31] was “inactive”, the Activity [32] was “inactive” and the Activity [33] was “inactive”. The MIC50 [29] was 8 µg/mL (≈ 16.9 µM), the MIC50 [6] was 0.5 µg/mL (≈ 1.05 µM) and the Activity [34] was “inactive”. For the same compound, the Activity [35] was “inactive” and the MIC50 [8] was 4 µg/mL (≈ 8.43 µM).
In the case of COc1ccc(C2=C(c3ccc(Br)cc3)COC2=O)cc1, the Activity [36] is reported as “inactive”, the Activity [31] is reported as “inactive” and the Activity [32] is reported as “inactive”. For the same compound, the Activity [37] was “inactive”, the Activity [33] was “inactive” and the Activity [34] was “inactive”. The Activity [38] was “inactive” and the Activity [35] was “inactive”.
In the case of COc1cc(CC(=O)O)ccc1OCC(O)(Cn1cncn1)c1ccc(F)cc1F (racemic), the Activity [39] is reported as “inactive”, the Activity [40] is reported as “inactive” and the Activity [41] is reported as “inactive”. For the same compound, the Activity [42] was “inactive”, the Activity [43] was “inactive” and the Activity [44] was “inactive”. The Activity [45] was “inactive” and the Activity [46] was “inactive”.

Reference: ChEMBL document CHEMBL1817568, “Novel hybrids of fluconazole and furanones: design, synthesis and antifungal activity” (2011)
